Laboratory results from US11959096B2, “Methods for selective inhibition of pluripotent stem cells” (THE MEDICAL COLLEGE OF WISCONSIN, INC., priority 2014, dated 2024).

Assays:
hiPSC [1] = assay: Nucleotide pool measurements (HPLC); format: cell-based, human
Procedure: Nucleotide Pool Measurements: ATP, ADP, AMP, and NAD^+ were extracted using perchloric acid precipitation and analyzed using HPLC, following a previously published method. ATP, ADP, AMP and NAD^+ peaks were measured for each sample, compared with the standards, and normalized to protein levels.

[2] = DMSO; cited from earlier work
hiPSC (DF6-9-9T) = assay: Neutral red cell viability assay in hiPSC; format: cell-based, human; conditions: for LD50: 24 hour pulse treatment, viability 72 hours after treatment initiation
Procedure: (§1) Neutral red assays for cell viability were performed as previously described. In vitro cell death was determined using SYTOX® Green nucleic acid stain (Life Technologies). Briefly, cells were incubated in 5 μM SYTOX® Green for 30 minutes at 37° C. in a humidified cell incubator with 5% CO2. […] Imaging of cell viability was performed using Live/Dead® Viability/Cytotoxicity Kit, for mammalian cells (Life Technologies). Cells were stained for 20 minutes at room temperature with 4 μM Calcein AM to detect viable cells and 2 μM Ethidium Homodimer 1 to detect cells with compromised membranes. […] Imaging was performed with a Nikon Ti-U inverted microscope.

[3] = Neutral red cell viability assay in hiPSC; format: cell-based, human; conditions: human, hiPSC (DF6-9-9T) cells; 72 hours after start of treatment; both confluent and sub-confluent cells; 2.5 μM; read-out: viable cells remaining
Procedure: as §1

[4] = tested on: PAX6 positive neural progenitor cells; format: cell-based
Source text: Data expressed as mean+S.D. (n=4); p<0.05, **p<0.01, ***p<0.001. […] Data expressed as mean+S.D. (n=4), *p<0.05, **p<0.01, ***p<0.001.

H1 hESC colonies = assay: Elimination of hESC colonies grown on human fibroblast feeders (alkaline phosphatase staining, brightfield); format: cell-based
confluent hiPSC = assay: Colony formation assay (alkaline phosphatase staining); format: cell-based, human; conditions: for colony formation: 24 hours treatment, no passaging, six days
Procedure: The first iteration was adapted from previously described method, after 24 hours of treatment, hiPSC were detached with Accutase (StemCell Technologies), re-suspended in E8, passed though 12×75 mm tube with cell strainer cap (Falcon), and plated at 5e4 live cells per 2 cm^2. Media were changed every 48 hours and cells were cultured for six days, at which time staining for alkaline phosphatase was performed with leukocyte alkaline phosphatase kit (Sigma-Aldrich) as described and plates were visually inspected for phosphatase-positive colonies. This strategy represents the most common implementation of the colony formation assay. However, concerns regarding the cell death normally encountered during passaging prompted another approach for stricter assessment. In the second iteration, cells were treated for 24 hours, washed twice with 0.5 mL D-PBS, and media refreshed with E8. Thereafter, media were replaced daily for six days at which point staining for alkaline phosphatase activity was performed. […] Elimination of hiPSC from co-cultures with differentiated cells was performed with human fibroblasts and day 10 cardiomyocytes derived from hiPSC. hiPSC (DF6-9-9T) were plated at concentrations ranging from 100-10,000 live cells per well with human fibroblasts (1.75e5 cells) or day 10 differentiated cardiomyocytes (3.75e5 cells) in E8 and Y-27632 per 9.6 cm^2. […] Six days after plating, staining for alkaline phosphatase activity was performed. […] Imaging of wells was performed with a Sony Cyber-shot DSC-TX30 and individual colonies with a Nikon stereoscope.

[5] = tested on: confluent hiPSC (DF6-9-9T); assay: Bright field imaging of cell morphology; format: cell-based, human
Procedure: In Vitro Toxicity Assays: Treatment with small molecules or glucose deprivation was initiated in hESC or hiPSC at 24 and 96 h post-plating and in vitro toxicity assays were performed at specified treatment endpoints 24-96 hours after treatment initiation. […] Neutral red assays for cell viability were performed as previously described. In vitro cell death was determined using SYTOX® Green nucleic acid stain (Life Technologies). Briefly, cells were incubated in 5 μM SYTOX® Green for 30 minutes at 37° C. in a humidified cell incubator with 5% CO2. Percent cell viability was determined by normalizing to replicate cells incubated with 120 μM digitonin (Sigma-Aldrich) and 5 μM SYTOX® Green. Imaging of cell viability was performed using Live/Dead® Viability/Cytotoxicity Kit, for mammalian cells (Life Technologies). Cells were stained for 20 minutes at room temperature with 4 μM Calcein AM to detect viable cells and 2 μM Ethidium Homodimer 1 to detect cells with compromised membranes. Representative images of alterations in cell morphology were acquired on confluent hPSC 24-72 hours after treatment initiation. Imaging was performed with a Nikon Ti-U inverted microscope.

hiPSC [6] = assay: Extracellular flux analysis (ECAR, OCR); format: cell-based, human
Procedure: Extracellular Flux Analysis: hiPSC were plated at 6e4 cells per well on specialized microplate (Seahorse Bioscience) as previously described with several exceptions. Extracellular flux analysis was performed on hiPSC 48 hours post-plating using Seahorse Bioscience XF24 Analyzer. […] The microplate was equilibrated in non-CO2 incubator for 1.5 h, and analyzed for 16 h in Seahorse Bioscience XF24 Analyzer. Assay medium consists of basal E8 reagents with the following exceptions: basal DMEM F-12 without phenol red (Gibco), no sodium bicarbonate, and 2.5 mM GlutaMAX™ (Gibco) and 15 mM Hepes (Gibco). Assay medium was adjusted to pH 7.4 at 37° C. prior to use. Extracellular acidification rate (ECAR) and basal oxygen consumption rate (OCR) were collected approximately every 60 minutes. Treatments were normalized to baseline media control value and are represented as average of thee biological replicates.

[7] = tested on: DF6-9-9T hiPSC in co-culture with day 10 cardiomyocytes or human fibroblasts; assay: Colony formation assay in co-cultures of hiPSC with differentiated cells; format: cell-based; conditions: 5 μM
Procedure: The first iteration was adapted from previously described method, after 24 hours of treatment, hiPSC were detached with Accutase (StemCell Technologies), re-suspended in E8, passed though 12×75 mm tube with cell strainer cap (Falcon), and plated at 5e4 live cells per 2 cm^2. Media were changed every 48 hours and cells were cultured for six days, at which time staining for alkaline phosphatase was performed with leukocyte alkaline phosphatase kit (Sigma-Aldrich) as described and plates were visually inspected for phosphatase-positive colonies. This strategy represents the most common implementation of the colony formation assay. However, concerns regarding the cell death normally encountered during passaging prompted another approach for stricter assessment. In the second iteration, cells were treated for 24 hours, washed twice with 0.5 mL D-PBS, and media refreshed with E8. Thereafter, media were replaced daily for six days at which point staining for alkaline phosphatase activity was performed. […] Elimination of hiPSC from co-cultures with differentiated cells was performed with human fibroblasts and day 10 cardiomyocytes derived from hiPSC. hiPSC (DF6-9-9T) were plated at concentrations ranging from 100-10,000 live cells per well with human fibroblasts (1.75e5 cells) or day 10 differentiated cardiomyocytes (3.75e5 cells) in E8 and Y-27632 per 9.6 cm^2. […]

CC(C)(C)c1ccc(S(=O)(=O)NCc2ccc(C(=O)Nc3cccnc3)cc2)cc1 [STF-31, 4-[[[[4-(1,1-Dimethylethyl)phenyl]sulfonyl]amino]methyl]-N-3-pyridinyl-benzamide]
time until ATP levels decrease (hiPSC [1]; 2.5 μM STF-31): 18 h | NAD+ levels (hiPSC [1]; 2.5 μM STF-31, by 3 hours): −50% | NAD+ levels (hiPSC [1]; 2.5 μM STF-31, by 18 hours): < 1% | solubility [2]: soluble in DMSO | LD50 (hiPSC (DF6-9-9T); confluent hiPSC): 1.78 µM | LD50 (hiPSC (DF6-9-9T); sub-confluent hiPSC): 1.35 µM | effect of increasing concentration on time of significant toxicity (hiPSC (DF6-9-9T); concentrations up to 100 μM, neutral red): did not accelerate the time | median lethal dose (LD50) (hiPSC (DF6-9-9T); confluent hiPSC, 48 hours after continuous treatment, neutral red): 182 nM | minimal treatment time to achieve complete toxicity of hPSC (hiPSC (DF6-9-9T); data not shown): 24 h | viability at 72 h, 2.5 μM [3]: < 2% | viability (MTT) and immunofluorescence compared with controls ([4]; 2.5 μM for 72 hours, day 10 and day 12 progenitors): indistinguishable from controls | toxicity ([4]; short term treatment (24 hours), 2.5 μM): does not result in significant toxicity | colonies by alkaline phosphatase staining (H1 hESC colonies; after 96 hours of treatment, 2.5 μM): Colonies were not detected | time at which toxicity occurs (H1 hESC colonies; hESC colonies on human fibroblast feeder cells, 2.5 μM): 48 to 72 h | colony growth after passaging (H1 hESC colonies; passaged 96 hours after treatment initiation, cultured additional 72 hours): No colony growth or alkaline phosphatase activity was detected | formation of alkaline phosphatase-positive colonies (confluent hiPSC; 24 hour pulse, cells passaged, cultured 6 days): prevented the formation of alkaline phosphatase-positive colonies | colony formation (confluent hiPSC; 2.5 μM STF-31): a limited number of colonies formed | colony formation (confluent hiPSC; 5 μM STF-31): no colonies were observed | morphology of hiPSC ([5]; 2.5 μM STF-31, 24 hour incubation): did not modify the morphology | morphology of hiPSC ([5]; 2.5 μM STF-31, 48 hour treatment): patches of diminished, non-adherent cells and reduction in overall cell number | morphology of hiPSC ([5]; 72 hours, 2.5 μM STF-31, 30 μM WZB117, 20 μM PluriSIn): highly toxic | delay of decrease in ECAR compared to inhibitors of glucose oxidation (hiPSC [6]; 2.5 μM STF-31): up to 15 hours | time before reductions in OCR (hiPSC [6]; 2.5 μM STF-31, 30 μM WZB117): 15 h | elimination of hiPSC colonies from co-culture ([7]; 24-hour pulse, day 10 cardiomyocytes): elimination of a majority of hiPSC colonies | elimination of hiPSC colonies from co-culture ([7]; 48 hour pulse, day 10 cardiomyocytes or human fibroblasts): completely eliminate hiPSC
